Test results published in ChEMBL document CHEMBL2069232, “Novel structural insights for imidoselenocarbamates with antitumoral activity related to their ability to generate methylselenol” (Bioorg Med Chem, 2012).
Activity calls are given as the source filed them. The rule behind the calls is not given here. Numbered stars: 1 amine (or outer) side, 2 acyl side, 3 side chain; on linkers, the order of the positions; unused ones are H or OH. Bridge positions count the residues as written; N and C are the ends. Square brackets hold non-standard residues; d marks the D form. Peptide text beside a SMILES is read from it. I, II: the chains in the order shown. Actinocin(1to9) = Cc1c2oc3c(C)ccc(C(=O)[*:2])c3nc-2c(C(=O)[*:1])c(N)c1=O; NMeV = CN[C@H](C(=O)O)C(C)C; Sar = CNCC(=O)O

Columns and labels:
NCI-H157 [1] = assay: Induction of apoptosis in human NCI-H157 cells at 10 uM incubated for 5 hrs in serum-free medium by annexin V/propidium iodide staining by flow cytometry; format: functional, cell-based
NCI-H157 [2] = assay: Induction of apoptosis in human NCI-H157 cells assessed as live cell level at 10 uM incubated for 5 hrs in serum-free medium by annexin V/propidium iodide staining by flow cytometry; format: functional, cell-based
NCI-H157 [3] = assay: Induction of apoptosis in human NCI-H157 cells assessed as necrotic cell level at 10 uM incubated for 5 hrs in serum-free medium by annexin V/propidium iodide staining by flow cytometry; format: functional
NCI-H157 [4] = assay: Induction of apoptosis in human NCI-H157 cells assessed as apoptotic cell level at 10 uM incubated for 5 hrs in serum-free medium by annexin V/propidium iodide staining by flow cytometry; format: functional
NCI-H157 [5] = assay: Induction of apoptosis in human NCI-H157 cells assessed as damaged cell level at 10 uM incubated for 5 hrs in serum-free medium by annexin V/propidium iodide staining by flow cytometry; format: functional
[6] = Induction of methylselenol release in phenol-red free RPMI 1640 medium containing 100 uM DTNB; format: physicochemical
[7] = Induction of methylselenol release in pH 8.0 phosphate buffer containing 100 mM Na2PO4, 1 mM EDTA and 100 uM DTNB; format: physicochemical

Row | SMILES | Activity (NCI-H157 [1]) | Activity (NCI-H157 [2]) | Activity (NCI-H157 [3]) | Activity (NCI-H157 [4]) | Activity (NCI-H157 [5]) | t1/2 [6] | t1/2 [7]
1 | C[Se]/C(=N\C(=O)c1ccc(C)cc1)NC(=O)c1ccc(C)cc1 | inactive | – | – | – | – | – | –
2 | Cc1c2oc3c(C)ccc(C(=O)N[C@@H]4C(=O)N[C@H](C(C)C)C(=O)N5CCC[C@H]5C(=O)N(C)CC(=O)N(C)[C@@H](C(C)C)C(=O)O[C@@H]4C)c3nc-2c(C(=O)N[C@@H]2C(=O)N[C@H](C(C)C)C(=O)N3CCC[C@H]3C(=O)N(C)CC(=O)N(C)[C@@H](C(C)C)C(=O)O[C@@H]2C)c(N)c1=O [DACTINOMYCIN] (I: T[dV]P[Sar][NMeV] / II: T[dV]P[Sar][NMeV]; ester I:1-I:C, II:1-II:C; linker I:N-II:N via Actinocin(1to9)) | – | Active | 3% | 9% | 23% | – | –
3 | CS/C(=N/C(=O)c1cccnc1Cl)NC(=O)c1cccnc1Cl | – | – | – | – | – | 31 h | 917 h
4 | CS/C(=N/C(=O)c1cccnc1)NC(=O)c1cccnc1 | – | – | – | – | – | 24 h | 1333 h
5 | C[Se]/C(=N/C(=O)c1cccnc1)NC(=O)c1cccnc1 | Active | Active | 5% | 11% | 28% | 2.9 h | 26 h
6 | C[Se]/C(=N\C(=O)c1ccccc1)NC(=O)c1ccccc1 | inactive | – | – | – | – | – | –
7 | COc1ccc(C(=O)/N=C(\NC(=O)c2ccc(OC)cc2OC)[Se]C)c(OC)c1 | inactive | – | – | – | – | – | –
8 | C[Se]/C(=N/C(=O)c1cccnc1Cl)NC(=O)c1cccnc1Cl | Active | – | – | – | – | 4.7 h | 40 h
9 | C[Se]/C(=N/C(C)=O)NC(C)=O | Active | – | – | – | – | 0.82 h | 9.2 h
10 | C[Se]/C(=N\C(=O)c1ccc(C(F)(F)F)cc1)NC(=O)c1ccc(C(F)(F)F)cc1 | inactive | – | – | – | – | – | –
